The values that follow come from publication PMC6309379 (Journal of medicinal chemistry, 2018).

In one assay the test system is MOLM13 cells. As to the kind of experiment: Cell cycle study, propidium iodide staining. It is filed as cell-based, human. Conditions: MOLM13, 1 μM, 24 h.
The next assay has as its system PLK kinases (PLK1–3). As to the kind of experiment: KINOMEscan. It is filed as binding. Conditions: 1 uM, control DMSO.
For another assay, the target named is BRD4-BD1 (Homo sapiens, UniProt O60885). As to the kind of experiment: BROMOscan. Type of assay: binding. Conditions: 1 uM, control DMSO.

Regarding `CC[C@@H]1C(=O)N(C)c2cnc(Nc3ccc(C(=O)NC4CCN(C)CC4)cc3OC)nc2N1C1CCCC1` [BI-2536, reference compound], in the assay on MOLM13 cells, the cell cycle arrest result was “G1/G2 arrest”.

As for `COc1cc(C(=O)NC2CCN(C)CC2)ccc1Nc1ncc2c(n1)N(C1CCCC1)[C@H](C)C(=O)N2C` [Compound 5, (R)-4-((8-cyclopentyl-5,7-dimethyl-6-oxo-5,6,7,8-tetrahydropteridin-2-yl)amino)-3-methoxy-N-(1-methylpiperidin-4-yl)benzamide], the “PLK kinases % of control” value in the assay with PLK kinases (PLK1–3) is on record as 0.3–0.5 % of control. The “BRD4-BD1 % of control” value at BRD4-BD1 is on record as 12 % of control.

As to `C[C@@H]1C(=O)N(C)c2cnc(Nc3ccc(C(=O)NC4CCN(C)CC4)cc3OC3CCCC3)nc2N1C1CCCC1` [Compound 23, (R)-4-((8-cyclopentyl-5,7-dimethyl-6-oxo-5,6,7,8-tetrahydropteridin-2-yl)amino)-3-(cyclopentyloxy)-N-(1-methylpiperidin-4-yl)benzamide], the cell cycle arrest entry with MOLM13 cells is reported as “cell cycle arrest in the G1/G2 stage of the cell cycle”.
